Source: US20230002368A1, “USE OF COMPOUNDS FOR THE PREVENTION AND/OR TREATMENT OF ANKYLOSING SPONDYLITIS, AND CORRESPONDING COMPOSITIONS” (NUVAMID SA, priority 2019, published 2023)

How the values were obtained:
[1] = test system: TgA86 mice as a model for ankylosing spondylitis; assay: TgA86 mouse model of ankylosing spondylitis: joint score and tail score; format: in vivo; details: male TgA86 mice, NMN 185 mg/kg intraperitoneally
Experimental: (§1) The efficacy of the use of NMN (compound IE) according to the invention was evaluated in 3-week-old TgA86 mice as a model for ankylosing spondylitis. TgA86 mice develop peripheral and axial AS with an incidence of 100%. In these mice, the peripheral form is manifested by joint welling and paw deformation, whilst the axial form is clinically characterised by curved tails and pelvic ankylosis.
(§2) In brief, male TgA86 mice were divided into two groups of 10 mice each: (i) a control group, in which the mice were treated with vehicle, i.e. a 0.9% NaCl solution (10 mL/kg), marked ‘Vehicle’; […] a group of mice treated with NMN (185 mg/kg), marked ‘NMN’. The solutions were injected intraperitoneally.
The mice were treated for 10 weeks under the conditions set forth supra. The joint score, tail score, and weight of the mice were measured every week. The joint score was determined in accordance with table 3 infra:
The tail score is an indicator that allows for an evaluation of the axial form of AS and pelvic ankylosis (see https://www.biomedcode.com/wp-content/uploads/2019/07/TgA86-white-paper.pdf). The tail score was determined in accordance with table 4 infra: […]

[2] = Weight and tolerance of treated TgA86 mice; format: in vivo; details: male TgA86 mice, NMN 185 mg/kg intraperitoneally, 10 weeks
Experimental: as §1, §2
The mice were treated for 10 weeks under the conditions set forth supra. The joint score, tail score, and weight of the mice were measured every week. The joint score was determined in accordance with table 3 infra: […]

NC(=O)c1ccc[n+]([C@@H]2O[C@H](COP(=O)([O-])O)[C@@H](O)[C@H]2O)c1 [NMN, nicotinamide mononucleotide]
average joint score (peripheral AS) ([1]; 10 weeks, vs vehicle control group (FIG. 2)): reduction in the joint score of the mice compared to the control group
average tail score (axial AS, pelvic ankylosis) ([1]; 10 weeks, vs vehicle control group (FIG. 3)): reduces the tail score in the mice treated compared to the control group
significance of the joint score reduction over time ([1]; T-test vs vehicle (FIG. 2)): particularly significant starting in the 5th week of treatment
significance of the tail score reduction over time ([1]; T-test vs vehicle (FIG. 3)): significant starting in the second week of treatment
tolerance / toxicity in the animals [2]: well tolerated by the mice and does not cause any distress or toxicity in the animals
development of the average weight of mice ([2]; measured every week, vs vehicle (FIG. 1)): follows a similar course of development to that of the control group
